Test results published in ChEMBL document CHEMBL4765428, “Design, synthesis, and electrophysiological evaluation of NS6740 derivatives: Exploration of the structure-activity relationship for alpha7 nicotinic acetylcholine receptor silent activation” (Eur J Med Chem, 2020).
Activity calls are given as the source filed them. The calls are words filed in the database; no cut-off is given here.

Key:
[1] = target: T1, Neuronal acetylcholine receptor subunit alpha-7 (Homo sapiens, UniProt P36544); assay: (§1) Partial agonist activity at human alpha7 nAChR expressed in Xenopus laevis oocytes assessed as inhibition of Ach response at 10 to 30 uM at -60 mV holding potential by measuring net charge preincubated with compound followed by Ach addition by two electrode voltage-clamp assay; assay type: cell-based; conditions: Oocyte, dose 10-30 µM
T1 sequence (P36544 whole entry): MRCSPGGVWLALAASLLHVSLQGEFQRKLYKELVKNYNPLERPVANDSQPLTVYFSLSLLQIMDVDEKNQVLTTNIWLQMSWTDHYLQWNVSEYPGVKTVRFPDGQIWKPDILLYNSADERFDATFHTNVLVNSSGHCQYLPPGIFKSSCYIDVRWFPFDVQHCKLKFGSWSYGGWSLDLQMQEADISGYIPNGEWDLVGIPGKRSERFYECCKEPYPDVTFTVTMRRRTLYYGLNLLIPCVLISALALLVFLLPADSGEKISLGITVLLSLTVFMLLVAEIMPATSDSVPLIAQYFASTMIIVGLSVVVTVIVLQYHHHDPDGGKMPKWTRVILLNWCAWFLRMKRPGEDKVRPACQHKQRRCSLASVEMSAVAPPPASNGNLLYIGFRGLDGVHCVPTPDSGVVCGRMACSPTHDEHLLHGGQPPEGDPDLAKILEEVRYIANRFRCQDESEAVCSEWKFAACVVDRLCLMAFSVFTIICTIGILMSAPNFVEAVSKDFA

[2] = target: T1, Neuronal acetylcholine receptor subunit alpha-7; assay: Partial agonist activity at human alpha7 nAChR expressed in Xenopus laevis oocytes at 10 uM at -60 mV holding potential by measuring net charge by two electrode voltage-clamp assay; assay type: cell-based; conditions: Oocyte
[3] = target: T1, Neuronal acetylcholine receptor subunit alpha-7; assay: as §1, with “residual potentiation” for “inhibition”, “10” for “10 to 30”, “addition after PNU-120596 addition” for “addition”; assay type: cell-based; conditions: Oocyte
[4] = target: T1, Neuronal acetylcholine receptor subunit alpha-7; assay: Partial agonist activity at human alpha7 nAChR expressed in Xenopus laevis oocytes assessed as direct potentiation of Ach response at 10 uM at -60 mV holding potential by measuring net charge co-application of compound and PNU-120596 by two electrode voltage-clamp assay; assay type: cell-based; conditions: Oocyte
[5] = target: T1, Neuronal acetylcholine receptor subunit alpha-7; assay: Partial agonist activity at human alpha7 nAChR expressed in Xenopus laevis oocytes at -60 mV holding potential by two electrode voltage-clamp assay; assay type: cell-based, Oocyte; conditions: for Imax: Oocyte, filed as partial agonist
[6] = target: T1, Neuronal acetylcholine receptor subunit alpha-7; assay: Partial agonist activity at human alpha7 nAChR expressed in Xenopus laevis oocytes assessed as direct potentiation of Ach response at 30 uM at -60 mV holding potential by measuring net charge co-application of compound and PNU-120596 by two electrode voltage-clamp assay; assay type: cell-based; conditions: Oocyte, filed as partial agonist
[7] = target: T1, Neuronal acetylcholine receptor subunit alpha-7; assay: Partial agonist activity at human alpha7 nAChR expressed in Xenopus laevis oocytes at 1 to 30 uM at -60 mV holding potential by two electrode voltage-clamp assay; assay type: cell-based; conditions: Oocyte, dose 1-30 µM
[8] = target: T1, Neuronal acetylcholine receptor subunit alpha-7; assay: as §1, with “residual potentiation” for “inhibition”, “at” for “at 10 to”, “addition after PNU-120596 addition” for “addition”; assay type: cell-based; conditions: Oocyte, filed as partial agonist
[9] = target: T1, Neuronal acetylcholine receptor subunit alpha-7; assay: as §1, with “residual potentiation” for “inhibition”, “3” for “10 to 30”, “addition after PNU-120596 addition” for “addition”; assay type: cell-based; conditions: Oocyte, filed as partial agonist
[10] = target: T1, Neuronal acetylcholine receptor subunit alpha-7; assay: Partial agonist activity at human alpha7 nAChR expressed in Xenopus laevis oocytes assessed as inhibition of Ach response at 30 uM at -60 mV holding potential by measuring net charge preincubated with compound followed by Ach stimulation by two electrode voltage-clamp assay; assay type: cell-based; conditions: Oocyte, filed as partial agonist
[11] = target: T1, Neuronal acetylcholine receptor subunit alpha-7; assay: Partial agonist activity at human alpha7 nAChR expressed in Xenopus laevis oocytes assessed as inhibition of Ach response at 3 uM at -60 mV holding potential by measuring net charge preincubated with compound followed by Ach stimulation by two electrode voltage-clamp assay; assay type: cell-based; conditions: Oocyte

Compound	Activity ([1]; filed as partial agonist)	Activity ([2]; filed as partial agonist)	Activity ([3]; filed as partial agonist)	Activity ([4]; filed as partial agonist)	Activity [1]	Activity [2]	Activity [3]	also measured
O=C(c1ccc(-c2ccccc2)o1)N1CCN2CCC1CC2	0.14	0.54	18.3	–	–	–	–	–
C[N+]12CCC(CC1)N(C(=O)c1ccc(-c3cccc(C(F)(F)F)c3)o1)CC2	–	0.79	1.39	Active	–	–	–	EC50 [5]: 322 nM; Imax [5]: 0.81
O=C(c1ccc(-c2cccc(C(F)(F)F)c2)o1)N1C[C@@H]2C[C@H]1CN2	–	–	–	15.2	inactive	inactive	inactive	–
O=C(c1ccco1)N1CCN2CCC1CC2	–	0.71	–	Active	–	–	inactive	EC50 [5]: 764 nM; Imax [5]: 0.71
Cc1cccc(-c2ccc(C(=O)N3CCN4CCC3CC4)o2)c1	0.2	–	30.7	–	–	inactive	–	–
Nc1cccc(-c2ccc(C(=O)N3CCN4CCC3CC4)o2)c1	0.5	0.1	–	24.6	–	–	–	–
O=C(c1ccc(-c2cccc(Br)c2)o1)N1CCN2CCC1CC2	Active	–	Active	–	–	inactive	–	–
FC(F)(F)c1cccc(-c2ccc(CN3CCN4CCC3CC4)o2)c1	–	–	–	–	–	inactive	inactive	Activity [4]: inactive
O=C(c1ccc(-c2cccc(Cl)c2)o1)N1CCN2CCC1CC2	–	–	Active	–	0.04	inactive	–	–
CCN1CCN2CCC1CC2	–	–	–	–	inactive	inactive	–	Activity [4]: inactive
O=C(c1ccc(-c2cccc(C(F)(F)F)c2)o1)N1CC2CCN(CC2)C1	–	–	–	–	inactive	inactive	inactive	Activity [4]: inactive
O=C(c1ccc(-c2ccoc2)o1)N1CCN2CCC1CC2	Active	Active	Active	–	–	–	–	–
O=C(c1ccc(-c2cncc3ccccc23)o1)N1CCN2CCC1CC2	0.94	0.11	–	20.4	–	–	inactive	–
O=C(c1ccc(-c2cccc(C(F)(F)F)c2)o1)N1CCN2CCC1CC2	0.19	–	111	–	–	–	–	Activity [6]: 2.73; Activity [7]: inactive; Activity [8]: 57.4; Activity [9]: 123; Activity [10]: 0.18; Activity [11]: inactive
CCN(CC)C(=O)c1ccc(-c2cccc(C(F)(F)F)c2)o1	–	–	–	–	inactive	inactive	inactive	Activity [4]: inactive
O=C(c1ccc(-c2ccc3ccccc3c2)o1)N1CCN2CCC1CC2	1.18	0.15	–	–	–	–	inactive	Activity [4]: inactive
O=C(c1ccc(-c2cccc(C(F)(F)F)c2)o1)N1C[C@H]2C[C@@H]1CN2	–	–	–	43.7	inactive	inactive	inactive	–
C1CN2CCC(CC2)N1	–	–	–	–	inactive	inactive	inactive	Activity [4]: inactive
O=C(c1ccc(-c2ccc(C(F)(F)F)cc2)o1)N1CCN2CCC1CC2	0.64	0.4	3.23	6.25	–	–	–	–
O=C(c1ccc(-c2cccc(F)c2)o1)N1CCN2CCC1CC2	Active	–	Active	–	–	inactive	–	–
O=C(c1ccc(-c2cccc(I)c2)o1)N1CCN2CCC1CC2	Active	–	Active	–	–	inactive	–	–
CC(=O)N1CCN2CCC1CC2	–	–	–	Active	–	inactive	inactive	–
O=C(c1ccc(-c2cccc(O)c2)o1)N1CCN2CCC1CC2	–	–	Active	–	inactive	inactive	–	–
O=C(c1ccc(-c2cccc([N+](=O)[O-])c2)o1)N1CCN2CCC1CC2	–	–	4.78	12.2	inactive	inactive	–	–
